Data as given in patent US8183211B2, “Pharmaceutical compositions for inhibiting intestinal permeability” (University of Maryland, Baltimore, priority 2000, dated 2012).
Ends that are not written are not given here.

Assays:
rabbit ileum = test: Tissue resistance (Rt) of rabbit ileum mounted in Ussing chambers; format: cell-based
Procedure: Next, rabbit ileum mounted in Ussing chambers as described above, were exposed to 100 μg of FZI/0 (SEQ ID NO:15), 100 μg of FZI/1 (SEQ ID NO:29), 1.0 μg of 6×His-ZOT (obtained as described in Example 1 of U.S. patent application Ser. No. 09/127,815, filed Aug. 3, 1998), 1.0 μg of zonulini (obtained as described in Example 3 of U.S. patent application Ser. No. 09/127,815, filed Aug. 3, 1998), or 1.0 μg of zonulinh (obtained as described in Example 3of U.S. patent application Ser. No. 09/127,815, filed Aug. 3, 1998), alone; or pre-exposed for 20 min to 100 μg of FZI/0 or FZI/1, at which time 1.0 μg of 6×His-ZOT, 1.0 μg of zonulini, or 1.0 μg of zonulinh, was added. ΔRt was then calculated as described above.

BB/Wor rats = test: BB/Wor diabetic rat model, progression to diabetes; format: in vivo; conditions: 10 μg/ml in drinking water
Procedure: Both groups were maintained on a standard diet of rat chow (Harlan Teklab Diet #7012). All food and water were previously autoclaved. Each day, daily water intake was measured and 100 ml of fresh water was given. The treated group received 10 μg/ml of the zonulin peptide antagonist (SEQ ID NO:15) supplemented in the drinking water. The rats were housed in hepa-filter cages.
Diabetes in the rats was diagnosed as follows: The rats were weighed twice a week. Blood glucose was determined weekly using the OneTouch® glucose monitoring system (Johnson & Johnson). Each week, reagent strips for urinalysis were used to monitor glucose (Diastix®) and ketones (Ketositx®) (Bayer). Rats with a blood glucose>250 mg/dl were fasted overnight, and blood glucose levels>200 mg/dl were considered diabetic.
Following clinical presentation of diabetes, the rats were sacrificed as follows: the rats were anesthesized using ketamine anesthesia and a midline incision was made allowing access to the heart. An 18 G needle was placed into the heart and death occurred by exsanguinations. Then, zonulin assays were conducted as described above. […] According to Biomedical Research Models, Inc., 80% of diabetes prone rats present with diabetes by age 80 days.

rabbit ileal mucosa = conditions: cited from earlier work

FZI/1: second synthetic peptide: Gly in position 8, Val in position 12, Gln in position 13 changed to Val, Gly, Arg (VGVLGRPG; tight junction antagonist peptide) [reference compound]
inhibitory effect on ZOT, zonulini and zonulinh action on Rt (rabbit ileum; pre-exposure for 20 min to 100 μg peptide): completely ablated

GGVLVQPG [FZI/0, synthetic octapeptide corresponding to amino acid residues 8-15 of human fetal zonulini]
change in Rt as compared to the negative control (rabbit ileum; 100 μg peptide alone, rabbit ileum): 0.5% | decrease of the effect of ZOT on Rt (rabbit ileum; pre-treatment for 20 min with 100 μg peptide, then 1.0 μg 6×His-ZOT): 75% | decrease of the effect of zonulinh on Rt (rabbit ileum; pre-treatment for 20 min with 100 μg peptide, then 1.0 μg zonulinh): 100% | decrease of the effect of zonulini on Rt (rabbit ileum; pre-treatment for 20 min with 100 μg peptide, then 1.0 μg zonulini): 97% | treated rats that did not develop diabetes (BB/Wor rats; endpoint age 80 days): 60% | rats that developed diabetes by age 80 days (BB/Wor rats; n=5, control rats 80%): 40%

ZOT: zonula occludens toxin elaborated by V. cholerae
Na+-glucose coupled active transport (rabbit ileal mucosa): does not affect | cytotoxicity (rabbit ileal mucosa): not cytotoxic | transepithelial resistance (rabbit ileal mucosa): fails to completely abolish
